Legend:
RPMI 8226 = assay: MTT cell proliferation assay; type: cell-based; conditions: Homo sapiens, 48 h
Experimental: (§1) U266, RPMI 8226 cells (1×10^4), primary CD138+ cells, PBMCs (5×10^4), and BMSCs (1×10^4) were cultured in 96-well dishes and incubated without or with 6-OAP at indicated concentration for 48 h. MM.1S and MM.1R cells (2×10^4) were seeded into 96-well dishes and pre-cultured for 24 h, then treated with 6-OAP for 48 h. Cell proliferation was determined by MTT assay. Cell viability was estimated by trypan blue dye exclusion.

U266 = assay: MTT cell proliferation assay; type: cell-based; conditions: Homo sapiens, U-266, 48 h
Experimental: as §1

MM.1R = assay: MTT cell proliferation assay; type: cell-based; conditions: Homo sapiens, 48 h
Experimental: as §1

U266 cells = assay: Immunofluorescence analysis of microtubules (anti-α-tubulin); type: cell-based, human; conditions: 5 to 7.5 µM for 24 h or 7.5 µM for 12 to 24 h
Experimental: Both control and 6-OAP-treated MM cells were plated on glass slides by centrifugation using a cytospin, air-dried for 5 min at room temperature, and fixed with 4% paraformaldehyde for 15 min. After a brief washing in PBS with 100 mM glycine, slides were blocked with 5% bovine serum albumin (BSA; Sigma) and 0.3% Triton X-100 in PBS for 30 min at room temperature. Microtubules were detected with indicated antibodies diluted 1∶50 in 5% BSA in PBS overnight at 4°C and FITC or rhodamine-conjugated secondary antibodies (Santa Cruz) diluted 1∶200 in 5% BSA in PBS for 1.5 h at 37°C. Cells were then washed three times with PBS. Nuclei were stained with DAPI (Sigma).
Figure 2 6-OAP induces mitotic arrest in MM cells. (A) U266 cells were treated with 6-OAP at 7.5 µM for 0, 24, 48 h and imaged by Leica DMI 400B microscope. (B) U266 cells were treated with 6-OAP at indicated concentrations for 48 h. Cell cycle distribution was determined by flow cytometry. (C) MM.1S cells were treated with 5 µM 6-OAP for 48 h. Cell cycle distribution was determined by flow cytometry. (D) U266 cells were treated with 6-OAP at 5 to 7.5 µM for 24 h (left panel) or at 7.5 µM for 12 to 24 h (right panel). For immunofluorescence analysis of microtubules, cells was stained with an anti-α-tubulin antibody to visualize microtubules (green) and DAPI to counter stained DNA (blue) and observed by confocal microscopy. […]

[1] = tested on: normal PBMCs from 5 healthy volunteers; assay: MTT assay on normal PBMCs; type: cell-based, human; conditions: 48 h
Text: CD138+ cells from 7 MM patients were isolated with informed consent from BM mononuclear cells by using positive immunomagnetic column separation (Miltenyi Biotech, Auburn, CA). The purity of CD138+ cells is above 97% as determined by flow cytometry. BMSCs were generated from a MM patient-derived CD138-negative BM mononuclear cells cultured for 5 weeks. Peripheral blood mononuclear cells (PBMCs) from 5 healthy donors were separated by Ficoll-Hipaque density sedimentation.
as §1

With `CC=C(C)C(=O)OC1C2C(CC(C)C3C=CC(=O)C31C)OC(=O)C2C` (centres unmarked) [6-OAP, 6-O-angeloylplenolin] the IC50 (RPMI 8226) was 3.5 ± 0.3 µM, the IC50 (U266) was 8.6 ± 0.5 µM and the IC50 (MM.1R) was 9.2 ± 2.1 µM. The “cellular microtubule network / mitotic spindle” value (U266 cells) was “cellular microtubules assembled to form mitotic spindle” and the “growth of normal PBMCs” value [1] was “did not drastically affect the growth”.
